{"source": "patent US9241488B2", "about": "“Azole derivative, method for producing azole derivative, and intermediate compound” (KUREHA CORPORATION, priority 2011, dated 2016)", "key": {"[1]": {"tested_on": "Barley leaf blotch (Rhynchosporium secalis)", "assay": "Anti-bacterial effect on various microorganisms (plate medium), R. sec", "assay_type": "cell-based"}, "[2]": {"tested_on": "Wheat fusarium blight (Fusarium graminearum)", "assay_type": "cell-based"}, "[3]": {"tested_on": "Wheat eye spot (Pseudocercoporella herpotrichoides)", "assay": "Anti-bacterial effect on various microorganisms (plate medium), P.h", "assay_type": "cell-based"}, "[4]": {"tested_on": "Sclerotinia rot (Sclerotinia sclerotiorum)", "assay": "Anti-bacterial effect on various microorganisms (plate medium), S.s", "assay_type": "cell-based"}, "[5]": {"tested_on": "Rice bakanae disease (Giberella fujikuroi)", "assay": "Anti-bacterial effect on various microorganisms (plate medium), G.f", "assay_type": "cell-based"}, "[6]": {"tested_on": "Wheat pink snow mold (Microdochium nivale)", "assay": "Anti-bacterial effect on various microorganisms (plate medium), M.n", "assay_type": "cell-based"}, "[7]": {"tested_on": "Rice blast (Pyricularia oryzae)", "assay_type": "cell-based"}, "[8]": {"tested_on": "wheat-brown-rust-causing microorganisms", "assay": "Controlling effect on wheat brown rust (spray, pot test)", "assay_type": "in vivo, Puccinia recondita", "details": "1 mg/L sprayed at 1,000 L/ha, wheat NORIN No. 61, 9 to 14 days after inoculation", "procedure": "Onto a wheat plant (cultivar: NORIN No. 61) grown to the two-leaf stage with use of a square plastic pot (6 cm×6 cm), a wettable formulation such as Formulation Example 1 which was diluted and suspended in water at a concentration of 1 mg/L was sprayed at a rate of 1,000 L/ha. The sprayed leaves were air-dried, and inoculated with spore suspension of wheat-brown-rust-causing microorganisms (adjusted at 200 spores/vision, […] was added at 60 ppm) by spraying, and kept at 25° C. and a high humidity for 48 hours. Thereafter, the plant was kept in a greenhouse. Nine to fourteen days after inoculation, the wheat brown rust lesion degree was evaluated. The protective value was calculated by the following equation. Protective value (%)=(1-mean lesion degree in sprayed plot/mean lesion degree in unsprayed plot)×100 [table] [table]"}, "[9]": {"tested_on": "Barley loose smut (Ustilago nuda)", "assay": "Anti-bacterial effect on various microorganisms (plate medium), U.n", "assay_type": "cell-based"}, "[10]": {"tested_on": "Wheat Septoria nodorum blotch microorganism (Phaeosphaeria nodorum)", "assay": "Anti-bacterial effect on various microorganisms (plate medium), P.n", "assay_type": "cell-based"}, "[11]": {"tested_on": "wheat leaf blight-causing microorganisms", "assay": "Anti-bacterial effect on wheat leaf blight-causing microorganisms (PDA plate, mycelial growth inhibition)", "assay_type": "cell-based, Septoria tritici", "details": "1.25 mg/L in PDA plate medium, 25° C., 14 days", "procedure": "In Test Examples, an anti-bacterial effect of a compound in accordance with the present invention on the wheat leaf blight-causing microorganisms was tested, and was compared with the anti-bacterial effect of a comparative compound (1).\nA dimethyl sulfoxide solution (0.6 ml) containing a compound in accordance with the present invention was added to a PDA medium (potato dextrose agar medium) (60 ml) having about 60° C., and the resultant mixture was mixed thoroughly in a 100-ml conical flask. The mixture was poured into a dish, and was solidified. […]\nOn the other hand, a subject microorganism previously cultured on a plate medium was cut out with use of a cork borer whose diameter was 4 mm, and the wheat leaf blight-causing microorganism on the plate medium thus cut out was inoculated to the chemical-containing plate medium described above. After such inoculation, the chemical-containing plate medium was incubated at 25° C. for 14 days, and then diameters of its flora were measured. A % mycelial growth inhibition was calculated with use of the formula. R=100(dc−dt)/dc (where R=% mycelial extension inhibition, dc=flora diameter in untreated plate, dt=flora diameter in treated plate)\nThe results obtained as described above were evaluated on a five-point scale according to the following criteria.\n• 5: % Mycerial growth inhibition of 80% or higher • 4: % Mycerial growth inhibition of less than 80 to 60% or higher • 3: % Mycerial growth inhibition of less than 60 to 40% or higher • 2: % Mycerial growth inhibition of less than 40 to 20% or higher • 1: % Mycerial growth inhibition of less than 20%"}, "[12]": {"tested_on": "Cucumber fusarium wilt (Fusarium oxysporum)", "assay": "Anti-bacterial effect on various microorganisms (plate medium), F.c", "assay_type": "cell-based"}, "[13]": {"tested_on": "Rice bacterial seeding blight (Rhizopus oryzae)", "assay": "Anti-bacterial effect on various microorganisms (plate medium), R.o", "assay_type": "cell-based"}, "[14]": {"tested_on": "Alternaria blotch (Alternaria alternata)", "assay": "Anti-bacterial effect on various microorganisms (plate medium), A.m", "assay_type": "cell-based"}, "[15]": {"tested_on": "Gray mold (Botritis cinerea)", "assay": "Anti-bacterial effect on various microorganisms (plate medium), B.c", "assay_type": "cell-based"}}, "note": "Where two headings read alike, the source gives them in different places.", "data": [{"molecule": "CCOC[C@]1(CCl)CC[C@@H](Cc2ccccc2)[C@]1(O)Cn1cncn1", "note": "(racemic) [Compound I-234, (1RS,2RS,5SR)-5-benzyl-2-chloromethyl-2-ethoxymethyl-1H-[1,2,4]triazole-1-ylmethylcyclopentanol]", "values": [{"measurement": "Growth inhibition grade R. sec", "setting": "[1]; 1.25 mg/L", "result": "5 (% Mycerial growth inhibition of 80% or higher)"}, {"measurement": "Growth inhibition grade R. sec", "setting": "[1]; 5 mg/L", "result": "5 (% Mycerial growth inhibition of 80% or higher)"}, {"measurement": "Growth inhibition grade F.g", "setting": "[2]; 1.25 mg/L", "result": "5 (% Mycerial growth inhibition of 80% or higher)"}, {"measurement": "Growth inhibition grade F.g", "setting": "[2]; 5 mg/L", "result": "5 (% Mycerial growth inhibition of 80% or higher)"}, {"measurement": "Growth inhibition grade P.h", "setting": "[3]; 1.25 mg/L", "result": "4 (% Mycerial growth inhibition of less than 80 to 60% or higher)"}, {"measurement": "Growth inhibition grade P.h", "setting": "[3]; 5 mg/L", "result": "5 (% Mycerial growth inhibition of 80% or higher)"}, {"measurement": "Growth inhibition grade S.s", "setting": "[4]; 1.25 mg/L", "result": "5 (% Mycerial growth inhibition of 80% or higher)"}, {"measurement": "Growth inhibition grade S.s", "setting": "[4]; 5 mg/L", "result": "5 (% Mycerial growth inhibition of 80% or higher)"}, {"measurement": "Growth inhibition grade G.f", "setting": "[5]; 1.25 mg/L", "result": "5 (% Mycerial growth inhibition of 80% or higher)"}, {"measurement": "Growth inhibition grade G.f", "setting": "[5]; 5 mg/L", "result": "5 (% Mycerial growth inhibition of 80% or higher)"}, {"measurement": "Growth inhibition grade M.n", "setting": "[6]; 1.25 mg/L", "result": "5 (% Mycerial growth inhibition of 80% or higher)"}, {"measurement": "Growth inhibition grade M.n", "setting": "[6]; 5 mg/L", "result": "5 (% Mycerial growth inhibition of 80% or higher)"}, {"measurement": "Growth inhibition grade P.o", "setting": "[7]; 1.25 mg/L", "result": "5 (% Mycerial growth inhibition of 80% or higher)"}, {"measurement": "Growth inhibition grade P.o", "setting": "[7]; 5 mg/L", "result": "5 (% Mycerial growth inhibition of 80% or higher)"}, {"measurement": "Protective value", "setting": "[8]", "result": "4 (61 to 80)"}, {"measurement": "Growth inhibition grade U.n", "setting": "[9]; 1.25 mg/L", "result": "5 (% Mycerial growth inhibition of 80% or higher)"}, {"measurement": "Growth inhibition grade U.n", "setting": "[9]; 5 mg/L", "result": "5 (% Mycerial growth inhibition of 80% or higher)"}, {"measurement": "Growth inhibition grade P.n", "setting": "[10]; 1.25 mg/L", "result": "5 (% Mycerial growth inhibition of 80% or higher)"}, {"measurement": "Growth inhibition grade P.n", "setting": "[10]; 5 mg/L", "result": "5 (% Mycerial growth inhibition of 80% or higher)"}, {"measurement": "Growth inhibition grade", "setting": "[11]", "result": "5 (% Mycerial growth inhibition of 80% or higher)"}, {"measurement": "Growth inhibition grade F.c", "setting": "[12]; 1.25 mg/L", "result": "5 (% Mycerial growth inhibition of 80% or higher)"}, {"measurement": "Growth inhibition grade F.c", "setting": "[12]; 5 mg/L", "result": "5 (% Mycerial growth inhibition of 80% or higher)"}, {"measurement": "Growth inhibition grade R.o", "setting": "[13]; 1.25 mg/L", "result": "5 (% Mycerial growth inhibition of 80% or higher)"}, {"measurement": "Growth inhibition grade R.o", "setting": "[13]; 5 mg/L", "result": "5 (% Mycerial growth inhibition of 80% or higher)"}, {"measurement": "Growth inhibition grade A.m", "setting": "[14]; 1.25 mg/L", "result": "4 (% Mycerial growth inhibition of less than 80 to 60% or higher)"}, {"measurement": "Growth inhibition grade A.m", "setting": "[14]; 5 mg/L", "result": "5 (% Mycerial growth inhibition of 80% or higher)"}, {"measurement": "Growth inhibition grade B.c", "setting": "[15]; 1.25 mg/L", "result": "5 (% Mycerial growth inhibition of 80% or higher)"}, {"measurement": "Growth inhibition grade B.c", "setting": "[15]; 5 mg/L", "result": "5 (% Mycerial growth inhibition of 80% or higher)"}]}]}
